Test results reported in patent publication US8889354B2, “Methods for the identification, assessment, and treatment of patients with cancer therapy” (Millennium Pharmaceuticals, Inc., priority 2005, dated 2014).
Like-named read-outs stand apart in the source and are kept apart here.

Legend:
multiple myeloma [1] = assay: Response of the pharmacogenomic patient subset (studies 024, 025, 039, 040), EBMT criteria; format: in vivo, human; conditions: for NP, number of patients classified as progression / NR, number of patients classified as responder / NS, number of patients classified as stable disease: best response, discovery samples
Protocol: Patients assigned to the high-dose dexamethasone group received treatment for a maximum of 280 days. Patients in this treatment group received up to four 5-week treatment cycles, followed by up to five 4-week treatment cycles. Within each 5-week treatment cycle, the patient received dexamethasone 40 mg/day PO, once daily on Days 1 to 4, 9 to 12, and 17 to 20 of a 35-day cycle. Within each 4-week treatment cycle, the patient received dexamethasone 40 mg/day PO once daily on Days 1 to 4 of a 28 day cycle.
Pharmacogenomic tumor samples (bone marrow aspirate) were collected from patients for evaluation of the expression of global mRNA levels.
For those patients who participated in the pharmacogenomic portion of the study, correlation between RNA expression levels and response to therapy were evaluated descriptively. In addition, duration of response, time to disease progression, quality of life, and overall patient survival may be analyzed using RNA expression as a factor.
A total of 224 patient samples were assessed for pharmacogenomic analyses. […] All pharmacogenomic analyses relied on the European Group for Blood and Marrow Transplant (EBMT) criteria of response category.
The data set consisted of discovery samples matched with the patient's outcome as measured by best response and time to disease progression. For best response, each patient was classified as responder (NR), stable disease (NS), or progression (NP). For marker identification, the three response classes were further grouped into responders vs. non-responders (stable and progression) (NP+S), responders vs. progression, or progression vs. others (stable and responders) (NR+S). The analyses further separated the patients based on the treatment they received. […] Thus, the responder vs. non-responder analysis utilizes 79 vs. 84 samples. The responder vs. progression analysis utilizes 79 vs. 41 and the progression vs. other analysis utilizes 41 vs. 122 samples. For the dexamethasone analysis NR=25, NS=16, and NP=21. Accordingly, the responder vs. non-responder analysis utilizes 25 vs. 37 samples. The responder vs. progression analysis utilizes 25 vs. 21 and the progression vs. other analysis utilizes 21 vs. 41 samples.

[2] = tested on: relapsed multiple myeloma; conditions: cited from earlier work
multiple myeloma [3] = conditions: bortezomib alone, cited from earlier work

C[C@@H]1C[C@H]2[C@@H]3CCC4=CC(=O)C=C[C@]4(C)[C@@]3(F)[C@@H](O)C[C@]2(C)[C@@]1(O)C(=O)CO [dexamethasone]
NP, number of patients classified as progression (multiple myeloma [1]): 21 | NR, number of patients classified as responder (multiple myeloma [1]): 25 | NS, number of patients classified as stable disease (multiple myeloma [1]): 16

CC(C)C[C@H](NC(=O)[C@H](Cc1ccccc1)NC(=O)c1cnccn1)B(O)O [bortezomib, N-pyrazinecarbonyl-L-phenylalanine-L-leucineboronic acid]
CR+PR rate ([2]; bortezomib 1.0 mg/m^2): 30% | CR+PR rate ([2]; bortezomib 1.3 mg/m^2): 38% | CR+PR rate (multiple myeloma [3]; 53 of 193 patients): 27% | overall response rate (CR+PR+MR) (multiple myeloma [3]; 67 of 193 patients): 35% | CR, number of patients (multiple myeloma [1]; Study 024): 1 | IE, number of patients (multiple myeloma [1]; Study 024): 0 | MR, number of patients (multiple myeloma [1]; Study 024): 0 | NC, number of patients (multiple myeloma [1]; Study 024): 1 | PD, number of patients (multiple myeloma [1]; Study 024): 4 | PR, number of patients (multiple myeloma [1]; Study 024): 1 | CR, number of patients (multiple myeloma [1]; Study 025): 2 | IE, number of patients (multiple myeloma [1]; Study 025): 5 | MR, number of patients (multiple myeloma [1]; Study 025): 3 | NC, number of patients (multiple myeloma [1]; Study 025): 10 | PD, number of patients (multiple myeloma [1]; Study 025): 14 | PR, number of patients (multiple myeloma [1]; Study 025): 10 | CR, number of patients (multiple myeloma [1]; Study 040): 1 | IE, number of patients (multiple myeloma [1]; Study 040): 2 | MR, number of patients (multiple myeloma [1]; Study 040): 6 | NC, number of patients (multiple myeloma [1]; Study 040): 13 | PD, number of patients (multiple myeloma [1]; Study 040): 8 | PR, number of patients (multiple myeloma [1]; Study 040): 20 | NP, number of patients classified as progression (multiple myeloma [1]): 41 | NR, number of patients classified as responder (multiple myeloma [1]): 79 | NS, number of patients classified as stable disease (multiple myeloma [1]): 43 | CR+PR rate (multiple myeloma [1]; pharmacogenomic patient set): 35% | overall response rate (multiple myeloma [1]; pharmacogenomic patient set): 46.4%
